Data set [1] concerns primary human CD34+ hematopoietic stem and progenitor cells. To be noted: Mandal et al. 2014; cited from earlier work.
For data set [2], the system named is Cas9 with gRNA targeting CCR5 in HEK293 cells. As to the kind of experiment: High Throughput Genome-wide Translocation Sequencing (HTGTS) off-target analysis. It is filed as cell-based, human. An excerpt:
However the impact of DNA repair pathway choice manipulation on genomic integrity is largely unaddressed. To address the impact of ectopic expression of RAD52 and dn53BP1 genomic integrity and CRISPR/Cas9-associated off-target effects the state of the art “High Throughput Genome-wide Translocation Sequencing” (HTGTS)^20—an unbiased approach to monitor off-target (OT) cutting—was utilized. […] As CRISPR/Cas9 may have unintended cutting activity at totally unrelated sequences that can not be predicted by an algorithm, the off-target activity of each guide by HTGTS was examined (data not shown). Though majority of the OTs identified by HGTS overlapped with those identified previously, it was possible to detect novel OTs (data not shown). To study the impact of RAD52 and dn53BP1 on OTs and genomic integrity one guide with no OTs (CCR5D) and other guide that has 7 OTs identified by HTGTS (CCR5Q) were further examined.
HTGTS and Off-Target Analysis. Off-target analysis was carried out by HTGTS as described earlier^20. Briefly, HEK293 cells were co-transfected with expression plasmids encoding Cas9:RAG1B (20 μg), guide RNA targeting CCR5 (10 μg), RAD52 and dn53BP1 (5 μg each) and GFA (5 μg) using Calcium Phosphate. Cells were lysed 48 hours post-transfection and DNA was isolated by ethanol precipitation. 50 μg of DNA was processed for HTGTS as described^20.
However, the impact that such manipulations may have on genomic integrity has not been addressed. To address the impact of ectopic expression of RAD52 and dn53BP1 on genomic integrity and CRISPR/Cas9 specificity High Throughput Genome-wide Translocation Sequencing (HTGTS) was utilized (Frock et al., 2014)—an unbiased approach to monitor the specificity and off-target (OT) activity of Cas9 and other engineered nucleases as well as other types of DSBs.
HTGTS was conducted to analyse off-target effects for gRNA targeting CCR5 (FIG. 8A).

Where two headings read alike, the source gives them in different places.

As to “gCCR5D: guide RNA targeting CCR5, spacer TCACTATGCTGCCGCCCAGT (guide TCACTATGCTGCCGCCCAGTGGG; listed as DNA, chemistry not given here; the letters are possibly those of the target site; listed as Homo sapiens)”, the “off-target activity in CD34+ HSPC” value in data set [1] is “did not exhibit OT activity”. Besides, the “number of off-target sites (OTs) identified by HTGTS” value is listed as “no OT” in data set [2] and “no OTs” in data set [2] (listed as CCR5D).
With “gCCR5Q: guide RNA targeting CCR5, spacer GCTGTGTTTGCGTCTCTCCC (guide GCTGTGTTTGCGTCTCTCCCAGG; listed as DNA, chemistry not given here; the letters are possibly those of the target site; listed as Homo sapiens)”, in data set [1], the “off-target activity in CD34+ HSPC” value is on record as “did not exhibit OT activity”. Besides, the “number of off-target sites (OTs) identified by HTGTS” value in data set [2] stood at 7.

These data come from patent publication US20200149038A1, “METHODS AND COMPOSITIONS RELATING TO HOMOLOGY-DIRECTED REPAIR” (CHILDREN'S MEDICAL CENTER CORPORATION, priority 2016, published 2020).
